Data on 88 compounds can be found in PubChem BioAssay AID463204 (Broad Institute, 2010).

Active and inactive are the calls of the source.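 Rule for the calls: active = AC50 no more than ten times the top concentration tested, that is within one log above it; inconclusive = flat curve fit with activity between 30% and 70%, or invalid poor fit; inactive = AC50 beyond ten times the top tested dose.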

The assay has as its system S. cerevisiae Mot1-301 ts growth rescue, BacTiter-Glo ATP luminescence. Briefly: growth rescue of Mot1-301 ts yeast, confirmation, SUMOylation pathway inhibitor project, whole organism, S. cerevisiae, Mot1-301 ts mutant, luminescence, dose retest (AID 463204).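 Note: growth at restrictive 38.5 degrees C of Mot1-301 OY566 strain; actives raise luminescence by restoring growth of the ts mutant at high temperature.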
In the case of `O=C(COC(=O)c1cccc(Br)c1)Nc1ccc2[nH]c(=O)[nH]c2c1`, the AC50 is > 42 µM (inactive). On to `O=c1cnc2ccccc2n1Cc1ccccc1C(F)(F)F`, for which the AC50 is > 42 µM (inactive). Regarding `OCCN1CN=C(Nc2nc3ccccc3o2)NC1`, the AC50 was > 42 µM (inactive). For `Nc1cc(C(=O)OCC(=O)N2CCOCC2)ccc1Cl`, the AC50 was > 42 µM (inactive). For `O=[N+]([O-])c1ccc(N/N=C/c2cccc(O)c2)cc1`, the AC50 is 29.4 µM. For `O=C(COc1ncnc2c(Cl)cc(Cl)cc12)NCCC1=CCCCC1`, the AC50 was > 42 µM (inactive). To `COC(=O)c1ccccc1NC(NC(=O)c1ccco1)C(=O)c1ccccc1` (stereo not drawn) belongs > 42 µM (inactive). With `O=c1c2ccccc2c2ccccc2c(=O)n1-c1ccccc1`, the AC50 was > 42 µM (inactive). Take `CC(C)CCNC(=O)Cn1c(=O)oc2cc(S(=O)(=O)N3CC(C)CC(C)C3)ccc21` (stereo not drawn): the AC50 is > 42 µM (inactive). With `O=C(N/N=C/c1cccc([N+](=O)[O-])c1)C1COc2ccccc2O1` (stereo not drawn), the AC50 is > 42 µM (inactive). To `COc1ccccc1NC(=S)N(Cc1ccccc1)Cc1cccs1` belongs > 42 µM (inactive). Regarding `O=C(CCCc1nc(-c2ccc(Cl)cc2)no1)NC1CCCCC1`, the AC50 is > 42 µM (inactive). For `CC(C)CCCN1CCN=C1Nc1ccccc1`, the AC50 is > 42 µM (inactive). The figure for `CN(C)CCCN(Cc1ccccc1)C(=S)Nc1ccc(F)c(Cl)c1` is > 42 µM (inactive); for `CCOC(=O)c1oc2cc(OC(C)=O)ccc2c(=O)c1-c1ccc(OC)c(OC)c1` it is > 42 µM (inactive). Take `CCc1c(C)nc(N2CCN(Cc3ccccc3)CC2)[nH]c1=O`: the AC50 is > 42 µM (inactive).

With `O=C(NC1CCc2ccccc21)c1cc(COc2ccc(F)cc2F)on1` (stereo not drawn), the AC50 was > 42 µM (inactive). Take `CC(C)(C)NC(=O)NC(=O)CN1CCN(S(=O)(=O)c2ccc3c(c2)OCCO3)CC1`: the AC50 was > 21 µM (inactive). Regarding `COc1cc(CN2CCC(Oc3cc(C(=O)NC4CC4)ccc3OC)CC2)cc(OC)c1`, the AC50 is 34.8 µM. As for `CCCc1ccccc1OCCNC(C)=O`, the AC50 was > 42 µM (inactive). Consider `CNC(=O)c1ccccc1NC(=O)c1c(O)c2c([nH]c1=O)CCCC2`, for which the AC50 is > 42 µM (inactive). For the compound `CCCCn1c(N)c(N(Cc2ccccc2OC)C(=O)c2c(CC)noc2C)c(=O)[nH]c1=O`, the AC50 was > 42 µM (inactive). As for `O=C(Nc1ccncc1Cl)c1ccncc1`, the AC50 was > 42 µM (inactive). As for `CC(C)Cc1nc(N2CCOCC2)c(C#N)c2c1CCC2`, the AC50 was > 42 µM (inactive). To `COc1cccc(CNC(=O)CCCn2nc(C)c3c(C)n(-c4ccccc4)nc3c2=O)c1` belongs > 42 µM (inactive). `CC1(C)Cc2c(cnn2-c2ccc(F)cc2)C(NC(=O)CCCN2CCCCC2=O)C1` (stereo not drawn): the AC50 was > 42 µM (inactive).

Consider `CCN(CC)c1ccc(N=Cc2c(O)n(Cc3ccccc3)c(=O)[nH]c2=O)cc1`, for which the AC50 was > 42 µM (inactive). The figure for `Cc1cc(-c2ccc(C(C)C)c(S(=O)(=O)N3CC(=O)Nc4ccccc43)c2)on1` is > 42 µM (inactive); for `Cc1c(NC(=O)c2cc(-c3ccccc3O)on2)c(=O)n(-c2ccccc2)n1C` it is > 42 µM (inactive). `COc1cc(OC)c(C(=O)N2CCN(c3ccccn3)CC2)cc1OC`: the AC50 was > 42 µM (inactive). As to `CCCC(=O)Nc1ccc(Sc2ccc([N+](=O)[O-])cc2)cc1`, the AC50 is 30.9 µM. Turning to `CN1CCCC(n2nc(Cc3ccc(Cl)cc3)c3ccccc3c2=O)CC1` (stereo not drawn), the AC50 is > 42 µM (inactive).

For `Cc1ccc(CSCCNC(=O)c2ccc(NS(C)(=O)=O)cc2)cc1`, the AC50 was > 42 µM (inactive). For the compound `O=C(OCC(=O)N1CCN(Cc2ccccc2)CC1)c1ccc(Cl)cc1`, the AC50 is > 42 µM (inactive). `Cc1c(C(=O)N2CCN(CCc3ccccc3)CC2)oc2ccccc12`: the AC50 is > 42 µM (inactive). The figure for `Cc1ccc(C(C(=O)Nc2ccc3c(c2)OCO3)N(C)C(=O)Cc2c[nH]c3ccccc23)cc1` (stereo not drawn) is > 42 µM (inactive); for `CNC(=O)Nc1cc(NC(=O)NC)cc(C(F)(F)F)c1` it is > 42 µM (inactive); for `CSCC[C@H](NC(=O)CC(C)(C)C)c1nc2ccccc2[nH]1` it is > 42 µM (inactive).

`COc1ccc2cc(C#N)c(Nc3cccc(F)c3)nc2c1`: the AC50 was > 42 µM (inactive). As to `COc1cc(S(=O)(=O)N2CCN(c3ccccc3)CC2)ccc1F`, the AC50 was > 42 µM (inactive).

With `Oc1ccc(C2=CSC3=NCCN23)cc1O`, the AC50 is > 42 µM (inactive).

For the compound `O=C(Cn1cnc2ccccc2c1=O)c1ccc(OC(F)F)cc1`, the AC50 is > 42 µM (inactive). For `CC(=O)Nc1ccc(S(=O)(=O)Nc2ccc3c(c2)C(=O)OC3)cc1`, the AC50 was > 42 µM (inactive). For the compound `COc1ccc(-c2cc(CC3(C(=O)O)CCN(C(=O)OC(C)(C)C)CC3)on2)c(OC)c1`, the AC50 is > 42 µM (inactive). As for `O=C1CC(c2ccccc2)c2ccc(O)cc2O1` (stereo not drawn), the AC50 was > 42 µM (inactive). As to `CCCC(O)(c1ccc(Br)cc1)C(CN1CCOCC1)c1ccc(Cl)cc1` (stereo not drawn), the AC50 is 5.13 µM. Turning to `CCC(C)NC(=O)CSc1nnc(-c2cc(-c3ccc(C)cc3)nc3ccccc23)n1N` (stereo not drawn), the AC50 was > 42 µM (inactive). Turning to `CN(C(=O)CSc1nc(-c2ccccc2)c(-c2ccccc2)o1)C1CCS(=O)(=O)C1` (stereo not drawn), the AC50 was > 42 µM (inactive).

On to `CCOc1ccc(Cl)cc1S(=O)(=O)N1CCC(C(=O)NCc2cccnc2)CC1`, for which the AC50 was > 42 µM (inactive).

For `CCCCN(C(=O)C1=COCCO1)c1c(N)n(Cc2ccccc2)c(=O)[nH]c1=O`, the AC50 was > 42 µM (inactive). `Cc1ccc(CC(=O)O/N=C(\N)c2cccc([N+](=O)[O-])c2)cc1`: the AC50 is > 42 µM (inactive). Consider `CCOC(=O)c1sc2ncnc(N3CCN(c4ccc(OC)cc4)CC3)c2c1C`, for which the AC50 was > 42 µM (inactive). Take `COc1ccc(CCNC(=O)c2cc(-c3ccco3)on2)cc1OC`: the AC50 was > 42 µM (inactive).

On to `Cc1cc(NC(=O)c2ccc(N3C(=O)CCC3=O)cc2)no1`, for which the AC50 was > 42 µM (inactive). For the compound `O=C(Nc1nnc(-c2ccco2)o1)c1ccc(S(=O)(=O)N2CCCC2)cc1`, the AC50 was > 42 µM (inactive).

As to `CS(=O)(=O)c1ccc(Cl)c(NC(=O)c2ccc3ccccc3c2)c1`, the AC50 was > 42 µM (inactive). To `Cc1ccc(C)c(C(C)NC(=O)c2ccncc2)c1` (stereo not drawn) belongs > 42 µM (inactive); to `CCCCCCCN1C(Nc2ccccc2)=NC[C@@H]1CC(C)C`, > 21 µM (inactive). `COc1ccc(CN(C)C(=O)c2sccc2-c2ccccc2)c(OC)c1`: the AC50 is > 42 µM (inactive). For the compound `CC1=C(C)CS(=O)N(S(=O)(=O)c2ccc(Cl)cc2)C1` (stereo not drawn), the AC50 is 3.41 µM. The figure for `CC[n+]1c(/C=C(\C)SC)sc2ccccc21` is 29.5 µM; for `O=C(c1ccc(CS(=O)(=O)c2ccccc2)o1)N1CCOCC1` it is > 42 µM (inactive); for `Cc1cccc(OCc2nnc(SCC(=O)O)n2-c2ccccc2)c1` it is > 42 µM (inactive).

Consider `CCc1cccc(C)c1NC(=O)CSc1nnc(-c2cc3cc(Br)ccc3o2)n1CC`, for which the AC50 is > 42 µM (inactive). In the case of `COc1ccc(NC(=O)CN(C)C(=O)/C=C/c2cn(-c3ccccc3)nc2-c2ccc(C)cc2)cc1`, the AC50 is > 42 µM (inactive). To `NC(=O)NC(=O)CSc1nc(C2CCCCC2)n(-c2ccccc2)n1` belongs > 42 µM (inactive). Regarding `CC1(C(=O)Nc2cccc(-n3cnnn3)c2)Cc2ccccc2C(=O)O1` (stereo not drawn), the AC50 was > 42 µM (inactive). Turning to `O=C(/C=C/c1ccc(Cl)cc1Cl)Nc1cccc(S(=O)(=O)NC2=NCCCCC2)c1`, the AC50 is > 42 µM (inactive). In the case of `CCOC(=O)C1CCN(C(=O)c2ccc3c(c2)NC(=O)/C(=C/c2ccccc2)S3)CC1`, the AC50 is > 42 µM (inactive). `COc1ccc(C(=O)CC(=O)C(=O)Nc2ccc(C)c(Cl)c2)cc1`: the AC50 is > 42 µM (inactive). With `O=c1/c(=C/c2ccco2)sc2nc(-c3ccccc3Br)nn12`, the AC50 is 5.74 µM. As to `CC(C)c1ccc2c(c1)CCC1C(C)(CN)CCCC21C` (stereo not drawn), the AC50 was 14.3 µM. Regarding `COc1ccc(/C=C2/SC(=O)N(NS(=O)(=O)c3ccccc3)C2=S)cc1OC`, the AC50 was > 42 µM (inactive). Regarding `COc1ccc(N(C(=O)c2ccncc2)S(=O)(=O)c2ccc(F)cc2)cc1`, the AC50 is > 42 µM (inactive). On to `Cc1ccccc1CSc1n[nH]c(NS(=O)(=O)c2ccccc2)n1`, for which the AC50 was > 21 µM (inactive). Regarding `CCOC(=O)CSc1nc2ccccc2c(=O)n1CC(C)C`, the AC50 was > 42 µM (inactive). In the case of `c1coc(C2OCC3(CO2)COC(c2ccco2)OC3)c1` (stereo not drawn), the AC50 was > 42 µM (inactive). As for `CN(C)S(=O)(=O)c1cccc(NC(=O)COc2nc3ccccc3nc2N2CCOCC2)c1`, the AC50 was > 42 µM (inactive). Turning to `COc1cc2c(=O)n(CCC(=O)NCC3CCCO3)c(=O)n(CC(=O)Nc3ccccc3C)c2cc1OC` (stereo not drawn), the AC50 is > 42 µM (inactive). Regarding `COc1ccc(CNC(=O)c2cc(=O)c3cc(C)cc(C)c3o2)cc1`, the AC50 was > 42 µM (inactive). For `COc1ccc(NC2CC(=O)N(C(C)C)C2=O)cc1` (stereo not drawn), the AC50 is > 42 µM (inactive). Consider `CCN1C(=O)c2cccc3c(S(=O)(=O)Nc4ccc(OC)cc4OC)ccc1c23`, for which the AC50 was > 42 µM (inactive). To `CCOC(=O)c1oc2ccccc2c1COC(=O)CNC(=O)c1cccc(C)c1` belongs > 42 µM (inactive). `O=C(CN1CCN(c2nc(-c3ccccc3)cs2)CC1)NNC(=O)c1ccc(Br)cc1`: the AC50 is > 42 µM (inactive).

In the case of `COc1cc2ccccc2cc1C(=O)Nc1ccc(CN2CCOCC2)cc1`, the AC50 is > 42 µM (inactive). As for `CC(C)N=C(NS(=O)(=O)NC(=O)c1ccccc1)c1ccccc1`, the AC50 is > 42 µM (inactive). On to `O=S(=O)(Nc1ccc(-c2nc3cccnc3s2)cc1)c1cc(F)ccc1F`, for which the AC50 is > 21 µM (inactive). As to `COc1cc(CN2CCNC(=O)C2CC(=O)NCCc2ncccc2C)cc(OC)c1` (stereo not drawn), the AC50 was > 42 µM (inactive).

As usually defined, the AC50 is the concentration at which the activity in the assay is half-maximal.
